Measurements published in patent publication JP2017128553A, “抗癌剤、抗癌剤の制御方法” (IHI Corp, priority 2016, dated 2017).

Assay: MRI造影効果: MRI contrast effect of solutions (T1- and T2-weighted, 7.0T)
Type: physicochemical
Conditions: aqueous solution, 0, 1.3, 2.5, 5mM, T1- and T2-weighted images, Fig. 6(C)

## Cc1ccc(Nc2nccc(N(C)c3ccc4c(C)n(C)nc4c3)n2)cc1S(N)(=O)=O [比較例1, 2-メチル-5-[[4-[メチル(2,3-ジメチル-2H-インダゾール-6-イル)アミノ]ピリミジン-2-イル]アミノ]ベンゼンスルホンアミド]
  MRI image appearance: いずれの濃度においても白色の高シグナル
